Test results taken from US11739074B2, “Ras inhibitors” (Revolution Medicines, Inc., priority 2019, dated 2023).
Like-named read-outs stand apart in the source and are kept apart here.

Assays:
Assay type in all cases: cell-based
AsPC-1 (K-Ras G12D) [1] = experiment: CellTiter-Glo cell viability assay, AsPC-1; conditions: Homo sapiens, ASPC1, 120 h
How it was run: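 Percent-of-DMSO luminescence values (CellTiter-Glo, day 5, plates equilibrated ~30 minutes at ambient temperature) were curve-fitted using a 4-parameter logistic equation; compounds had been added straight into wells containing the cells.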

NCI-H358 (K-Ras G12C) = experiment: CellTiter-Glo cell viability assay, H358; conditions: Homo sapiens, NCI-H358, 120 h
Procedure: Determination of Cell Viability in RAS Mutant Cancer Cell Lines
Protocol: CellTiter-Glo® Cell Viability Assay
Note—The following protocol describes a procedure for monitoring cell viability of K-Ras mutant cancer cell lines in response to a compound of the invention. Other RAS isoforms may be employed, though the number of cells to be seeded will vary based on cell line used.
Test compounds (132.5 nL) were directly dispensed into the assay plates containing cells. […] On day 5, assay plates and their contents were equilibrated to room temperature for approximately 30 minutes. […] Luminescence was measured using the PerkinElmer Enspire. Data were normalized by the following: (Sample signal/Avg. DMSO)*100. The data were fit using a four-parameter logistic fit.

AsPC-1 (K-Ras G12D) [2] = experiment: Potency assay: pERK in AsPC-1 cells; conditions: Homo sapiens
[3] = AsPC-1, K-Ras G12D, 5-day treatment, read-out: AsPC-1 Cell Viability IC50
[4] = NCI-H358, K-Ras G12C, 5-day treatment, read-out: H358 Cell Viability IC50
[5] = ASPC1, AsPC-1 cells, K-Ras G12D, read-out: pERK EC50 (AsPC-1 KRAS G12D)
[6] = read-out: AsPC-1 Cell Viability IC50, AsPC-1, K-Ras G12D, 5-day treatment
[7] = read-out: H358 Cell Viability IC50, NCI-H358, K-Ras G12C, 5-day treatment
[8] = ASPC1, read-out: pERK EC50 (AsPC-1 KRAS G12D)

| Structure (SMILES) | IC50 (AsPC-1 (K-Ras G12D) [1]; [3]) | IC50 (NCI-H358 (K-Ras G12C); [4]) | EC50 (AsPC-1 (K-Ras G12D) [2]; [5]) | IC50 (AsPC-1 (K-Ras G12D) [1]; [6]) | IC50 (NCI-H358 (K-Ras G12C); [7]) | EC50 (AsPC-1 (K-Ras G12D) [2]; [8]) |
| --- | --- | --- | --- | --- | --- | --- |
| CCn1c(-c2cccnc2[C@H](C)OC)c2c3cc(ccc31)-c1cc(O)cc(c1)C[C@H](NC(=O)[C@H](C(C)C)N(C)C(=O)[C@H]1CCN(C(=O)[C@H]3CN3)C1)C(=O)N1CCC[C@H](N1)C(=O)OCC(C)(C)C2 (single isomer, unassigned) [Compound 43A] | 100 to 1000 nM | < 10 nM | < 5000 nM | – | – | – |
| CCn1c(-c2cccnc2[C@H](C)OC)c2c3cc(ccc31)-c1cc(O)cc(c1)C[C@H](NC(=O)[C@H](C(C)C)N(C)C(=O)[C@H]1CCN(S(=O)(=O)[C@@H]3CN3C)C1)C(=O)N1CCC[C@H](N1)C(=O)OCC(C)(C)C2 (single isomer, unassigned) [Compound 56] | 1000 to 10000 nM | 100 to 1000 nM | < 5000 nM | – | – | – |
| CCn1c(-c2cccnc2[C@H](C)OC)c2c3cc(ccc31)-c1cc(O)cc(c1)C[C@H](NC(=O)[C@H](C1CCCC1)N(C)C(=O)CN(C)C(=O)[C@H]1N[C@H]1C1(OC)CC1)C(=O)N1CCC[C@H](N1)C(=O)OCC(C)(C)C2 (single isomer, unassigned) [Compound 322] | 1000 to 10000 nM | 10 to 100 nM | < 5000 nM | – | – | – |
| CCn1c(-c2cccnc2[C@H](C)OC)c2c3cc(ccc31)-c1cc(O)cc(c1)C[C@H](NC(=O)[C@H](C1CCCC1)N(C)C(=O)CN(C)C(=O)[C@@H]1N[C@@H]1C1(OC)CC1)C(=O)N1CCC[C@H](N1)C(=O)OCC(C)(C)C2 (single isomer, unassigned) [Compound 323] | 100 to 1000 nM | 10 to 100 nM | < 5000 nM | – | – | – |
| CCn1c(-c2cnccc2COC)c2c3cc(ccc31)-c1cc(O)cc(c1)C[C@H](NC(=O)[C@H](C(C)C)N(C)C(=O)CN(C)C(=O)[C@@H]1N[C@H]1c1ccccc1)C(=O)N1CCC[C@H](N1)C(=O)OCC(C)(C)C2 [Compound 11] | – | – | – | 1000 to 10000 nM | 100 to 1000 nM | < 5000 nM |
| CCn1c(-c2cnccc2COC)c2c3cc(ccc31)-c1cc(O)cc(c1)C[C@H](NC(=O)[C@H](C(C)C)N(C)C(=O)CN(C)C(=O)[C@H]1N[C@@H]1c1ccccc1)C(=O)N1CCC[C@H](N1)C(=O)OCC(C)(C)C2 [Compound 12] | – | – | – | 100 to 1000 nM | 100 to 1000 nM | < 5000 nM |
| CCn1c(-c2cccnc2[C@H](C)OC)c2c3cc(ccc31)-c1cc(O)cc(c1)C[C@H](NC(=O)[C@H](C(C)C)N(C)C(=O)CN(C)C(=O)[C@H]1CN1)C(=O)N1CCC[C@H](N1)C(=O)OCC(C)(C)C2 [Compound 42A] | – | – | – | 100 to 1000 nM | < 10 nM | < 5000 nM |
| CCn1c(-c2cccnc2[C@H](C)OC)c2c3cc(ccc31)-c1cc(O)cc(c1)C[C@H](NC(=O)[C@H](C(C)C)N1CCC3(CCN(C(=O)[C@H]4CN4)C3)C1=O)C(=O)N1CCC[C@H](N1)C(=O)OCC(C)(C)C2 (stereo partly shown) [Compound 59] | 100 to 1000 nM | < 10 nM | < 5000 nM | – | – | – |
| CCn1c(-c2cnccc2COC)c2c3cc(ccc31)-c1cccc(c1)C[C@H](NC(=O)[C@H](C(C)C)N(C)C(=O)CCN=C=Nc1ccc(N(C)C)cc1)C(=O)N1CCC[C@H](N1)C(=O)OCC(C)(C)C2 [Compound 66] | > 10000 nM | 1000 to 10000 nM | – | – | – | – |
| CCn1c(-c2cnccc2COC)c2c3cc(ccc31)-c1cccc(c1)C[C@H](NC(=O)[C@H](C(C)C)N(C)C(=O)CCN=C=Nc1ccc(N3CCOCC3)cc1)C(=O)N1CCC[C@H](N1)C(=O)OCC(C)(C)C2 [Compound 67] | > 10000 nM | > 10000 nM | – | – | – | – |
| CCn1c(-c2cccnc2[C@H](C)OC)c2c3cc(ccc31)-c1cccc(c1)C[C@H](NC(=O)[C@H](C(C)C)N(C)C(=O)[C@H]1C[C@H](N=C=NCc3ccccc3OC)C1)C(=O)N1CCC[C@H](N1)C(=O)OCC(C)(C)C2 [Compound 77] | 100 to 1000 nM | 100 to 1000 nM | < 5000 nM | – | – | – |
| CCn1c(-c2cccnc2[C@H](C)OC)c2c3cc(ccc31)-c1cc(O)cc(c1)C[C@H](NC(=O)[C@H](C(C)C)N(C)C(=O)c1ncc(NC(=O)[C@@H]3CN3)n1C)C(=O)N1CCC[C@H](N1)C(=O)OCC(C)(C)C2 [Compound 83] | 1000 to 10000 nM | 10 to 100 nM | < 5000 nM | – | – | – |
| CCn1c(-c2cccnc2[C@H](C)OC)c2c3cc(ccc31)-c1cc(O)cc(c1)C[C@H](NC(=O)[C@H](C(C)C)N(C)C(=O)CN(C)C(=O)[C@@H]1N[C@H]1COC)C(=O)N1CCC[C@H](N1)C(=O)OCC(C)(C)C2 [Compound 85] | – | – | – | 1000 to 10000 nM | 10 to 100 nM | < 5000 nM |
